From ChEMBL document CHEMBL3739323, “Design, synthesis, and biological evaluation of novel quinazolinyl-diaryl urea derivatives as potential anticancer agents” (Eur J Med Chem, 2016) come the findings set out here.

Active and inactive are the calls of the source. The calls are words filed in the database; no cut-off is given here.

Test [1] concerns A549. In words: Induction of apoptosis in human A549 cells assessed as necrotic cells at 20 uM after 48 hrs by Annexin-V/Propidium iodide dual staining based flow cytometric analysis (reference value: 2.57 +/- […]%). Type of test: functional. (In general: Flow cytometry measures light scatter and fluorescence of single cells or particles in a stream.)
Test [2] concerns the target RAF proto-oncogene serine/threonine-protein kinase (Homo sapiens) (UniProt P04049). In words: Inhibition of c-Raf in human A549 cells assessed as downregulation of ERK1/2 expression after 48 hrs by Western blot analysis. The format is cell-based. For orientation: Immunoblotting shows a protein as a band on a membrane.
In test [3] the test system is A549. In words: Induction of apoptosis in human A549 cells assessed as increase in ROS production at 20 uM after 12 hrs by DCF staining based luminescence spectrometric analysis relative to control. Type of test: functional.
For test [4], the target named is Serine/threonine-protein kinase B-raf (Homo sapiens) (UniProt P15056). In words: Inhibition of B-Raf in human A549 cells at 5 to 20 uM after 48 hrs by Western blot analysis. Type of test: cell-based.
The subject of test [5] is A549. In words: Induction of apoptosis in human A549 cells assessed as increase in ROS production at 20 uM after 6 hrs by DCF staining based luminescence spectrometric analysis relative to control. The format is functional.
Test [6] deals with A549. In words: Induction of apoptosis in human A549 cells assessed as viable cells at 10 uM after 6 hrs by Annexin-V-FITC/Propidium iodide staining based flow cytometric analysis (reference value: 95.48 +/- 2.03%). Type of test: functional. The conditions noted are these: A549, 6 h, read-out: Activity.
In test [7] the test system is A549. In words: Cell cycle arrest in human A549 cells assessed as accumulation at G2/M phase at 20 uM by propidium iodide staining based flow cytometric analysis (reference value: 12.77 +/- 1.55%). Type of test: functional.
The test system of test [8] is A549. In words: Induction of cell cycle arrest in human A549 cells assessed as downregulation of p-Rb(Ser807/811) expression after 48 hrs by Western blot analysis. Type of test: functional, cell-based.
For test [9], the system named is A549. In words: Cell cycle arrest in human A549 cells assessed as accumulation at S phase at 10 uM by propidium iodide staining based flow cytometric analysis (reference value: 23.41 +/- 2.19%). The format is functional.
Test [10] concerns HepG2. In words: Antiproliferative activity against human HepG2 cells by MTT assay. Type of test: functional, cell-based. For orientation: Formazan colour is commonly taken as a measure of viable cells.
For test [11], the system named is A549. In words: Cell cycle arrest in human A549 cells assessed as accumulation at S phase at 20 uM by propidium iodide staining based flow cytometric analysis (reference value: 23.41 +/- 2.19%). The format is functional.
The subject of test [12] is A549. In words: Antiproliferative activity against human A549 cells by MTT assay. The format is functional, cell-based.
Test [13] relates to A549. In words: Induction of apoptosis in human A549 cells assessed as downregulation of Bcl-2 expression after 48 hrs by Western blot analysis. The format is functional, cell-based.
Test [14] has as its system A549. In words: Cell cycle arrest in human A549 cells assessed as accumulation at G0/G1 phase at 5 uM by propidium iodide staining based flow cytometric analysis (reference value: 63.82 +/- 2.66%). Type of test: functional.
The subject of test [15] is A549. In words: Induction of apoptosis in human A549 cells assessed as early apoptotic cells at 10 uM after 6 hrs by Annexin-V-FITC/Propidium iodide staining based flow cytometric analysis (reference value: 3.83 +/- 0.49%). The format is functional.

RAF proto-oncogene serine/threonine-protein kinase (Homo sapiens), sequence (P04049 whole entry): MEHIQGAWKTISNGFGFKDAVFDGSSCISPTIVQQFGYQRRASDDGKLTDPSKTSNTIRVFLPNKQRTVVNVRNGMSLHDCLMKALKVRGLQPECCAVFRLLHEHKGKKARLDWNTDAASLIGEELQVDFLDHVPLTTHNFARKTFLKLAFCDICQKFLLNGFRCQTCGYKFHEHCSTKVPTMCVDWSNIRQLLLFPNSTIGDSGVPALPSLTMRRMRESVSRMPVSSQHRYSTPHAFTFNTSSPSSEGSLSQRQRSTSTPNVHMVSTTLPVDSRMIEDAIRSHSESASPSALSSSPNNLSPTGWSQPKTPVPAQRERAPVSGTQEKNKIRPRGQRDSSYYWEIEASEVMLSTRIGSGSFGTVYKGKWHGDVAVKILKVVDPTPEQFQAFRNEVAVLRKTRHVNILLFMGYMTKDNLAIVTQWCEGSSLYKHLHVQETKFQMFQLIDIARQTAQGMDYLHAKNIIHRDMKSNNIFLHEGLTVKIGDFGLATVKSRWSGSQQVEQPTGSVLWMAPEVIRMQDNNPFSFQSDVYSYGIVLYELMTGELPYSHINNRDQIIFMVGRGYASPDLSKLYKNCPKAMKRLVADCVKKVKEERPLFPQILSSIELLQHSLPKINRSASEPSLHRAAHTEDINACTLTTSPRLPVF
Serine/threonine-protein kinase B-raf (Homo sapiens), sequence (P15056 whole entry): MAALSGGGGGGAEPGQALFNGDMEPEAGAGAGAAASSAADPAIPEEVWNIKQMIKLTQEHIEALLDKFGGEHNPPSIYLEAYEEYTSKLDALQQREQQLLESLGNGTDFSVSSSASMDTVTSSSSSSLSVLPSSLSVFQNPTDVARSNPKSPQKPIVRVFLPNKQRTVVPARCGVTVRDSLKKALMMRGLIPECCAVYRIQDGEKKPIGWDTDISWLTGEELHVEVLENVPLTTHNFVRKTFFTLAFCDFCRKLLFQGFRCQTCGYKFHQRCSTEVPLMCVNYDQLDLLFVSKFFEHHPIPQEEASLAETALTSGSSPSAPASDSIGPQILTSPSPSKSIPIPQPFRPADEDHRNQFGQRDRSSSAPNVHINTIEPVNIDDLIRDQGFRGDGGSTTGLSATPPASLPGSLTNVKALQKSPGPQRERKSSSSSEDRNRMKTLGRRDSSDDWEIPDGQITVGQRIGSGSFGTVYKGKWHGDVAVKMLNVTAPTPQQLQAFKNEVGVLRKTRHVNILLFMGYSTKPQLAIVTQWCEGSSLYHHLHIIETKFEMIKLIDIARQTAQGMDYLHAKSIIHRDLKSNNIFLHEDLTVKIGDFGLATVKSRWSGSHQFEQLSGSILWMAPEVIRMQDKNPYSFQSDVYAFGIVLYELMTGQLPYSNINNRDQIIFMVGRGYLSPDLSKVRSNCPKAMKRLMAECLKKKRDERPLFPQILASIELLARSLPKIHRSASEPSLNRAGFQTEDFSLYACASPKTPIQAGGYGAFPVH

Take `COc1cc2ncnc(NCc3cccc(NC(=O)Nc4ccc(C(C)(C)C)cc4)c3)c2cc1OC`: the Activity is 42.2% in test [1]; 80.9% in [3]; 54.3% in test [5]; 1.07% in test [7]; “Dose-dependent effect” in test [8]; 6.91% in [9]. Further, the Activity in test [11] is 3.6%; in test [13] it was “Dose-dependent effect”; in [14], 66.29%; in [15], 12.2%. For the same compound, in test [2], the inhibition entry is “Dose-dependent effect”. Also, the inhibition result in [4] is “inactive”. The viability at 10 µM in test [6] was 81.8%. The IC50 (in general, the concentration at which inhibition is half-maximal) in [10] was found to be 6.85 µM; in test [12] it was 5.21 µM.
